Reference: PubChem BioAssay (NCI)
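Method: 48-hour compound exposure of cells in 96-well plates, five concentrations, linear interpolation of endpoints. GI50 = concentration required for 50% inhibition of growth. TGI denotes the concentration required for complete inhibition of growth.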

Assays:
Test in all cases: NCI tumour cell line growth inhibition, 48 h
786-0 renal = test system: 786-0 renal
A498 renal = test system: A498 renal
A549 NSCLC = test system: A549 NSCLC
ACHN renal = test system: ACHN renal
BT-549 breast = test system: BT-549 breast
CAKI-1 renal = test system: CAKI-1 renal
CCRF-CEM leukemia = test system: CCRF-CEM leukemia
COLO 205 colon = test system: COLO 205 colon
DU-145 prostate = test system: DU-145 prostate
EKVX NSCLC = test system: EKVX NSCLC
HCC-2998 colon = test system: HCC-2998 colon
HCT-116 colon = test system: HCT-116 colon
HCT-15 colon = test system: HCT-15 colon
HL-60(TB) leukemia = test system: HL-60(TB) leukemia
HOP-62 NSCLC = test system: HOP-62 NSCLC
HOP-92 NSCLC = test system: HOP-92 NSCLC
HS 578T breast = test system: HS 578T breast
HT29 colon = test system: HT29 colon
IGROV1 ovarian = test system: IGROV1 ovarian
K-562 leukemia = test system: K-562 leukemia
KM12 colon = test system: KM12 colon
LOX IMVI melanoma = test system: LOX IMVI melanoma
M14 melanoma = test system: M14 melanoma
MALME-3M melanoma = test system: MALME-3M melanoma
MCF7 breast = test system: MCF7 breast
MDA-MB-231 breast = test system: MDA-MB-231 breast
MDA-MB-435 = test system: MDA-MB-435
MOLT-4 leukemia = test system: MOLT-4 leukemia
NCI-H226 lung = test system: NCI-H226 lung
NCI-H23 lung = test system: NCI-H23 lung
NCI-H460 lung = test system: NCI-H460 lung
NCI-H522 lung = test system: NCI-H522 lung
NCI/ADR-RES ovarian = test system: NCI/ADR-RES ovarian
OVCAR-3 ovarian = test system: OVCAR-3 ovarian
OVCAR-4 ovarian = test system: OVCAR-4 ovarian
OVCAR-5 ovarian = test system: OVCAR-5 ovarian
OVCAR-8 ovarian = test system: OVCAR-8 ovarian
PC-3 prostate = test system: PC-3 prostate
RPMI-8226 leukemia = test system: RPMI-8226 leukemia
SF-268 CNS = test system: SF-268 CNS
SF-295 CNS = test system: SF-295 CNS
SF-539 CNS = test system: SF-539 CNS
SK-MEL-2 melanoma = test system: SK-MEL-2 melanoma
SK-MEL-28 melanoma = test system: SK-MEL-28 melanoma
SK-MEL-5 melanoma = test system: SK-MEL-5 melanoma
SK-OV-3 ovarian = test system: SK-OV-3 ovarian
SN12C renal = test system: SN12C renal
SNB-19 CNS = test system: SNB-19 CNS
SNB-75 CNS = test system: SNB-75 CNS
SR leukemia = test system: SR leukemia
SW-620 colon = test system: SW-620 colon
T-47D breast = test system: T-47D breast
TK-10 renal = test system: TK-10 renal
U251 CNS = test system: U251 CNS
UACC-257 melanoma = test system: UACC-257 melanoma
UACC-62 melanoma = test system: UACC-62 melanoma
UO-31 renal = test system: UO-31 renal

## COc1ccc(-c2cnc(NC(=O)CCCCCCNC(=O)C(O)(O)C(F)(F)F)s2)cc1
786-0 renal
  GI50: 1270 nM
  TGI: 15100 nM
A498 renal
  GI50: 288 nM
  TGI: 1530 nM
A549 NSCLC
  GI50: 1380 nM
  TGI: 11500 nM
ACHN renal
  GI50: 1010 nM
  TGI: 4190 nM
BT-549 breast
  GI50: 1810 nM
  TGI: 12900 nM
CAKI-1 renal
  GI50: 975 nM
  TGI: 7450 nM
CCRF-CEM leukemia
  GI50: 1340 nM
  TGI: > 30800 nM
COLO 205 colon
  GI50: 540 nM
  TGI: 1280 nM
DU-145 prostate
  GI50: 1030 nM
  TGI: 7670 nM
EKVX NSCLC
  GI50: 1970 nM
  TGI: > 30800 nM
HCC-2998 colon
  GI50: 1360 nM
  TGI: 4530 nM
HCT-116 colon
  GI50: 540 nM
  TGI: 4410 nM
HCT-15 colon
  GI50: 1600 nM
  TGI: 8010 nM
HL-60(TB) leukemia
  GI50: 1400 nM
  TGI: > 30800 nM
HOP-62 NSCLC
  GI50: 1140 nM
  TGI: > 30800 nM
HOP-92 NSCLC
  GI50: 561 nM
  TGI: 2110 nM
HS 578T breast
  GI50: 952 nM
  TGI: 10500 nM
HT29 colon
  GI50: 946 nM
  TGI: > 30800 nM
IGROV1 ovarian
  GI50: 987 nM
  TGI: 5310 nM
K-562 leukemia
  GI50: 709 nM
  TGI: > 30800 nM
KM12 colon
  GI50: 1080 nM
  TGI: 5480 nM
LOX IMVI melanoma
  GI50: 678 nM
  TGI: 1760 nM
M14 melanoma
  GI50: 1450 nM
  TGI: > 30800 nM
MALME-3M melanoma
  GI50: 1020 nM
  TGI: 3360 nM
MCF7 breast
  GI50: 1310 nM
  TGI: > 30800 nM
MDA-MB-231 breast
  GI50: 719 nM
  TGI: 2500 nM
MDA-MB-435
  GI50: 1000 nM
  TGI: 10200 nM
MOLT-4 leukemia
  GI50: 1100 nM
  TGI: > 30800 nM
NCI-H226 lung
  GI50: 2200 nM
  TGI: 12000 nM
NCI-H23 lung
  GI50: 1230 nM
  TGI: 8080 nM
NCI-H460 lung
  GI50: 735 nM
  TGI: 5790 nM
NCI-H522 lung
  GI50: 908 nM
  TGI: 4560 nM
NCI/ADR-RES ovarian
  GI50: 1610 nM
  TGI: 8780 nM
OVCAR-3 ovarian
  GI50: 635 nM
  TGI: 2110 nM
OVCAR-4 ovarian
  GI50: 2110 nM
  TGI: > 30800 nM
OVCAR-5 ovarian
  GI50: 907 nM
  TGI: 5500 nM
OVCAR-8 ovarian
  GI50: 967 nM
  TGI: 6850 nM
PC-3 prostate
  GI50: 1210 nM
  TGI: > 30800 nM
RPMI-8226 leukemia
  GI50: 857 nM
  TGI: > 30800 nM
SF-268 CNS
  GI50: 1130 nM
  TGI: 6260 nM
SF-295 CNS
  GI50: 742 nM
  TGI: 1820 nM
SF-539 CNS
  GI50: 1370 nM
  TGI: > 30800 nM
SK-MEL-2 melanoma
  GI50: 1010 nM
  TGI: 4490 nM
SK-MEL-28 melanoma
  GI50: 1370 nM
  TGI: > 30800 nM
SK-MEL-5 melanoma
  GI50: 921 nM
  TGI: 2860 nM
SK-OV-3 ovarian
  GI50: 863 nM
  TGI: 2270 nM
SN12C renal
  GI50: 1210 nM
  TGI: 10600 nM
SNB-19 CNS
  GI50: 1280 nM
  TGI: 9440 nM
SNB-75 CNS
  GI50: 1760 nM
  TGI: > 30800 nM
SR leukemia
  GI50: 601 nM
  TGI: > 30800 nM
SW-620 colon
  GI50: 623 nM
  TGI: 2360 nM
T-47D breast
  GI50: 864 nM
  TGI: 3780 nM
TK-10 renal
  GI50: 481 nM
  TGI: > 30800 nM
U251 CNS
  GI50: 862 nM
  TGI: 3780 nM
UACC-257 melanoma
  GI50: 1570 nM
  TGI: 24600 nM
UACC-62 melanoma
  GI50: 662 nM
  TGI: 1880 nM
UO-31 renal
  GI50: 904 nM
  TGI: 3980 nM
